Laboratory results as given in patent publication US20070173488A1, “Pyrazolothiazole Protein Kinase Modulators” (SGX Pharmaceuticals, Inc., priority 2005, published 2007).

Target: Met (Homo sapiens, UniProt P08581)
Assay: MET Luminescence-based Enzyme Assay (Kinase-Glo)
Format: biochemical
Parameters: Sf9 insect cell culture expressing the kinase domain of human Met; 6x Histidine tag (TEV-cleavable) (cleaved yes); made in house; host or cells: Sf9 insect cells
From the text: Homogeneous luminescence-based inhibitor screening assays were developed for c-Abl, MET, AurA, and PDK1 kinases (among others). Each of these assays made use of an ATP depletion assay (Kinase-Glo™, Promega Corporation, Madison, Wis.) to quantitate kinase activity. The Kinase-Glo™ format uses a thermostable luciferase to generate luminescent signal from ATP remaining in solution following the kinase reaction. The luminescent signal is inversely correlated with the amount of kinase activity.
Dose response was analyzed using the equation: y=min+{(max−min)/(1 +10^[compound]-logIC50)}, where y is the observed initial slope, max=the slope in the absence of inhibitor, min=the slope at infinite inhibitor, and the IC50 is the [compound] that corresponds to ½ the total observed amplitude (Amplitude=max−min).
The cell pellets produced from half of a 12 L Sf9 insect cell culture expressing the kinase domain of human Met were resuspended in a buffer containing 50 mM Tris-HCl pH 7.7 and 250 mM NaCl, in a volume of approximately 40 ml per 1 L of original culture. One tablet of Roche Complete, EDTA-free protease inhibitor cocktail (Cat# 1873580) was added per 1 L of original culture. The suspension was stirred for 1 hour at 4° C. Debris was removed by centrifugation for 30 minutes at 39,800×g at 4° C. The supernatant was decanted into a 500 ml beaker and 10 ml of 50% slurry of Qiagen Ni-NTA Agarose (Cat# 30250) that had been pre-equilibrated in 50 mM Tris-HCl pH 7.8, […], 10% Glycerol, 10 mM Imidazole, and 10 mM Methionine, were added and stirred for 30 minutes at 4° C. The sample was then poured into a drip column at 4° C. and washed with 10 column volumes of 50 mM Tris-HCl pH 7.8, 500 mM NaCl, 10% Glycerol, 10 mM Imidazole, and 10 mM Methionine. The protein was eluted using a step gradient with two column volumes each of the same buffer containing 50 mM, 200 mM, and 500 mM Imidazole, sequentially. The 6× Histidine tag was cleaved overnight using 40 units of TEV protease (Invitrogen Cat# 10127017) per 1 mg of protein while dialyzing in 50 mM Tris-HCl pH 7.8, 500 mM NaCl, 10% Glycerol, 10 mM Imidazole, and 10 mM Methionine at 4° C. The 6× Histidine tag was removed by passing the sample over a Pharmacia 5 ml IMAC column (Cat# 17-0409-01) charged with Nickel and equilibrated in 50 mM Tris-HCl pH 7.8, 500 mM NaCl, 10% Glycerol, 10 mM Imidazole, and 10 mM Methionine. The cleaved protein bound to the Nickel column at a low affinity and was eluted with a step gradient. The step gradient was run with 15% and then 80% of the B-side (A-side=50 mM Tris-HCl pH 7.8, 500 mM NaCl, 10% Glycerol, 10 mM Imidazole, and 10 mM Methionine; B-side=50 mM Tris-HCl pH 7.8, 500 mM NaCl, 10% Glycerol, 500 mM Imidazole, and 10 mM Methionine) for 4 column volumes each. The Met protein eluted in the first step (15%), whereas the non-cleaved Met and the cleaved Histidine tag eluted in the 80% fractions. The 15% fractions were pooled after SDS-PAGE gel analysis confirmed the presence of cleaved Met; further purification was done by gel filtration chromatography on an Amersham Biosciences HiLoad 16/60 Superdex 200 prep grade (Cat# 17-1069-01) equilibrated in 50 mM Tris-HCl pH 8.5, 150 mM NaCl, ˜10% Glycerol and 5 mM DTT. The cleanest fractions were combined and concentrated to ˜10.4 mg/ml by centrifugation in an Amicon Ultra-15 10,000 Da MWCO centrifugal filter unit (Cat# UFC901024).
MET Luminescence-based Enzyme Assay
Materials: Poly Glu-Tyr (4:1) substrate (Sigma Cat# P-0275), ATP (Sigma Cat#A-3377, FW=551), HEPES buffer, pH 7.5, Bovine serum albumin (BSA) (Roche 92423420), MgCl2, Staurosporine (Streptomyces sp. Sigma Cat#85660-1MG), white Costar 384-well flat-bottom plate (VWR Cat#29444-088). MET kinase (see below), Kinase-Glo™ (Promega Cat#V6712).
Stock Solutions: 10 mg/ml poly Glu-Tyr in water, stored at −20° C.; 100 mM HEPES buffer, pH 7.5 (5 ml 1M stock+45 ml miliQH2O); 10 mM ATP (5.51 mg/ml in dH2O) stored at −20° C. […]

Met, sequence (P08581 1078-1345 limits assumed): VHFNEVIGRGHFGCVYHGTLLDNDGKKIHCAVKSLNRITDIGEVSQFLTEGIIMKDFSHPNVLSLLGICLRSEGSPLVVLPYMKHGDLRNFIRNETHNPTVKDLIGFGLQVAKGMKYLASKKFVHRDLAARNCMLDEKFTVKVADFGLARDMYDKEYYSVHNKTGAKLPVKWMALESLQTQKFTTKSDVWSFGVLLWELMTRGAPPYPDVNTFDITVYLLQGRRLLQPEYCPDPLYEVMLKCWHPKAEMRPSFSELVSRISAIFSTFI

Row | SMILES | IC50
1 | O=C(Nc1nc2[nH]nc(-n3cncc3-c3cccc(F)c3F)c2s1)C1CC1 [Cyclopropanecarboxylic acid {3-[5-(2,3-difluoro-phenyl)-imidazol-1-yl]-1H-pyrazolo[3,4-d]thiazol-5-yl}-amide] | 1000 to 10000 nM
2 | O=C(Nc1nc2[nH]nc(-n3cncc3-c3c(Cl)cccc3Cl)c2s1)C1CC1 [Cyclopropanecarboxylic acid {3-[5-(2,6-dichloro-phenyl)-imidazol-1-yl]-1H-pyrazolo[3,4-d]thiazol-5-yl}-amide] | 1000 to 10000 nM
3 | O=C(Nc1nc2[nH]nc(-n3cncc3-c3c(Cl)ccc(Cl)c3Cl)c2s1)C1CC1 [Cyclopropanecarboxylic acid {3-[5-(2,3,6-trichloro-phenyl)-imidazol-1-yl]-1H-pyrazolo[3,4-d]thiazol-5-yl}-amide] | 1000 to 10000 nM
4 | O=C(Nc1nc2[nH]nc(-n3cncc3-c3ccccn3)c2s1)C1CC1 [Cyclopropanecarboxylic acid [3-(5-pyridin-2-yl-imidazol-1-yl)-1H-pyrazolo[3,4-d]thiazol-5-yl]-amide] | > 10000 nM
5 | COc1ccc2nc(Cl)c(-c3cncn3-c3n[nH]c4nc(NC(=O)C5CC5)sc34)cc2c1 [Cyclopropanecarboxylic acid {3-[5-(2-chloro-6-methoxy-quinolin-3-yl)-imidazol-1-yl]-1H-pyrazolo[3,4-d]thiazol-5-yl}-amide] | 100 to 1000 nM
6 | O=C(Nc1cc[nH]n1)Nc1nc2[nH]nc(-n3cncc3-c3ccccc3Cl)c2s1 [1-{3-[5-(2-Chloro-phenyl)-imidazol-1-yl]-1H-pyrazolo[3,4-d]thiazol-5-yl}-3-(1H-pyrazol-3-yl)-urea] | > 10000 nM
7 | O=C(Nc1nc2[nH]nc(-n3cncc3-c3ccccc3)c2s1)C1CC1 [Cyclopropanecarboxylic acid [3-(5-phenyl-imidazol-1-yl)-1H-pyrazolo[3,4-d]thiazol-5-yl]-amide] | > 10000 nM
8 | O=C(Nc1nc2[nH]nc(-n3cncc3-c3ccc4ccccc4c3)c2s1)C1CC1 [Cyclopropanecarboxylic acid [3-(5-naphthalen-2-yl-imidazol-1-yl)-1H-pyrazolo[3,4-d]thiazol-5-yl]-amide] | 1000 to 10000 nM
9 | O=C(Nc1nc2[nH]nc(-n3cncc3-c3ccccc3Cl)c2s1)C1CC1 [Cyclopropanecarboxylic acid {3-[5-(2-chloro-phenyl)-imidazol-1-yl]-1H-pyrazolo[3,4-d]thiazol-5-yl}-amide] | 100 to 1000 nM
10 | O=C(Nc1nc2[nH]nc(-n3cncc3-c3cc(Cl)cc(Cl)c3Cl)c2s1)C1CC1 [Cyclopropanecarboxylic acid {3-[5-(2,3,5-trichloro-phenyl)-imidazol-1-yl]-1H-pyrazolo[3,4-d]thiazol-5-yl}-amide] | 1000 to 10000 nM
11 | CS(=O)(=O)c1ccc(F)cc1-c1cncn1-c1n[nH]c2nc(NC(=O)C3CC3)sc12 [Cyclopropanecarboxylic acid {3-[5-(5-fluoro-2-methanesulfonyl-phenyl)-imidazol-1-yl]-1H-pyrazolo[3,4-d]thiazol-5-yl}-amide] | > 10000 nM
12 | NC(=O)COc1ccc(-c2cncn2-c2n[nH]c3nc(NC(=O)C4CC4)sc23)c(Cl)c1 [Cyclopropanecarboxylic acid {3-[5-(4-carbamoylmethoxy-2-chloro-phenyl)-imidazol-1-yl]-1H-pyrazolo[3,4-d]thiazol-5-yl}-amide] | 100 to 1000 nM
